Assay results from US12454506B2, “Benzoate derivatives” (ZHEJIANG YUEJIA PHARMACEUTICALS CO., LTD, priority 2022, dated 2025).

Key:
[1] = Solubility in purified water; assay type: physicochemical; conditions: thermodynamic from solid, compound added stepwise to 2 mL until hypersaturated or 2.0 g added
Protocol: About […] of the compound (A or B or C) to be tested was weighed and placed into a 10 mL sample tube, 2 mL of purified water was added, and the mixture was mixed well. In case of complete dissolution, about […] of the compound to be tested was replenished continuously, and the mixture was mixed well until a hypersaturated state was reached or the compound to be tested was added to 2.0 g. If the compound to be tested was added to […] and is still completely dissolved, the solubility of the compound to be tested in water was recorded as >1.0 g/mL.

[2] = test system: inflammatory factor MCP-1 mRNA in H9c2 cells; assay: TNF-α-induced H9c2 cell inflammation model, MCP-1 mRNA by RT-PCR; assay type: cell-based, rat; conditions: 2 h pre-incubation, 10 ng/mL TNF-α for 1 h, compounds A and C 5/1/0.2 mM, compound B 3/1/0.2 mM, FIG. 8
Protocol: The pH value was adjusted to 7.2 with 1 M HCl, and ultrapure water was used to reach the constant volume of 1 L. Finally, the medium was filtered into a sterile container by membrane filtration using a 0.22 m constant-volume filter. (After filtration, the pH value might rise by 0.1 to 0.3 units) • 1.3 Formulation of positive control drug: a dexamethasone solution: […] of dexamethasone was added to 5 mL of DMSO and shaken for dissolution. 1000×solution (10 mM) was obtained. The solution was aliquoted and stored in a refrigerator at −20° C. • 1.4 Formulation of test sample solution: […]
Compound A/compound B/compound C: the test sample was weighed at an appropriate mass and dissolved in DMSO to formulate a solution with a final concentration of 1 M, and the solution was aliquoted and then stored at −20° C. • 1.5 Penicillin/streptomycin biantibiotics solution: 8 million units/vial penicillin plus 40 mL of ultrapure water were mixed well, 1 g/vial streptomycin plus 50 mL of ultrapure water were mixed well, the two mixtures were mixed at a volume ratio of 1:1 to obtain 100×penicillin-streptomycin biantibiotics solution (containing 100,000 units/mL penicillin and 10 mg/mL streptomycin). After filtration through a 0.22 m sterile microfiltration membrane, the solution was aliquoted at 10 mL/tube, and stored in a refrigerator at −20° C. • 1.6 Formulation of buffer solution: • PBS: […] of NaCl, […] of KCl, […] of Na2HPO4 and […] of KH2PO4 were respectively weighed and placed in a 1 L volumetric flask; ultrapure water was added to 900 mL; the pH was adjusted to 7.2 with concentrated hydrochloric acid; and the volume was finalized to 1 L. The mixture was stored at room temperature. • 2. […]

solubility [1]	SMILES	inhibition of the elevation of the mRNA level of the inflammatory factor MCP-1 [2]
> 1000 mg/mL	CC[N+]([O-])(CC)CCOC(=O)c1ccccc1OC(C)=O [compound A]	dose-dependent inhibition
> 1000 mg/mL	CCN(CC)CCOC1(C)OC(=O)c2ccccc2O1 (stereo not drawn) [compound C]	dose-dependent inhibition
> 1000 mg/mL	CCN(CC)CCOC(=O)c1ccccc1OC(=O)CCl [compound B]	dose-dependent inhibition
